According to patent US11053204B2, “Pyrimidinyloxy benzene derivatives as herbicides” (FMC Corporation, priority 2015, dated 2021):

What was measured:
Format in all cases: in vivo
[1] = system: barnyardgrass (Echinochloa crus-galli); assay: Test C preemergence, plant response rating; details: Preemergence
[2] = system: galium (catchweed bedstraw, Galium aparine); assay: Test C preemergence, plant response rating
kochia (Kochia scoparia) = assay: Test C preemergence, plant response rating
[3] = system: field violet (Viola arvensis); assay: Test C postemergence, plant response rating; details: for Field Violet plant response rating: scale 0 to 100 (0 no effect, 100 complete control)
Summary of the method: (§1)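 Preemergence: seeds sown in loam–sand blend or silt loam and sprayed with test chemicals in a non-phytotoxic surfactant-containing solvent. Postemergence: potted plants at 2–18 cm (1–4-leaf stage) sprayed with the same formulation. After 13–15 d in greenhouse, visual rating versus controls on 0 (no effect) to 100 (complete control) scale.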

[4] = system: buckwheat, wild (wild buckwheat, Polygonum convolvulus); assay: Test C postemergence, plant response rating; details: for Buckwheat, Wild plant response rating: scale 0 to 100 (0 no effect, 100 complete control)
Summary of the method: as §1

[5] = system: wild poinsettia (Euphorbia heterophylla); assay: Test C postemergence, plant response rating; details: for Poinsettia, Wild plant response rating: scale 0 to 100 (0 no effect, 100 complete control)
Summary of the method: as §1

[6] = system: field poppy (Papaver rhoeas); assay: Test C postemergence, plant response rating; details: for Field Poppy plant response rating: scale 0 to 100 (0 no effect, 100 complete control)
Summary of the method: as §1

[7] = system: nightshade (eastern black nightshade, Solanum ptycanthum); assay: Test C postemergence, plant response rating; details: for Nightshade plant response rating: scale 0 to 100 (0 no effect, 100 complete control)
Summary of the method: as §1

[8] = system: pigweed, palmer (palmer pigweed, Amaranthus palmeri); assay: Test C postemergence, plant response rating; details: for Pigweed, Palmer plant response rating: scale 0 to 100 (0 no effect, 100 complete control)
Summary of the method: as §1

[9] = system: Canada thistle (Cirsium arvense); assay: Test C postemergence, plant response rating; details: for Canada Thistle plant response rating: scale 0 to 100 (0 no effect, 100 complete control)
Summary of the method: as §1

[10] = system: geranium, cutleaf (cutleaf geranium, Geranium dissectum); assay: Test C postemergence, plant response rating; details: for Geranium, Cutleaf plant response rating: scale 0 to 100 (0 no effect, 100 complete control)
Summary of the method: as §1

[11] = system: windgrass (Apera spica-venti); assay: Test C postemergence, plant response rating
Summary of the method: as §1

[12] = system: speedwell (bird's-eye speedwell, Veronica persica); assay: Test C postemergence, plant response rating; details: for Speedwell plant response rating: scale 0 to 100 (0 no effect, 100 complete control)
Summary of the method: as §1

[13] = system: wild mustard (Sinapis arvensis); assay: Test C postemergence, plant response rating
Summary of the method: as §1

[14] = system: surinam grass (Brachiaria decumbens); assay: Test C postemergence, plant response rating
Summary of the method: as §1

[15] = system: johnsongrass (Sorghum halepense); assay: Test C postemergence, plant response rating; details: for Johnsongrass plant response rating: scale 0 to 100 (0 no effect, 100 complete control)
Summary of the method: as §1

[16] = system: johnsongrass (Sorghum halepense); assay: Test C preemergence, plant response rating
[17] = system: nightshade (eastern black nightshade, Solanum ptycanthum); assay: Test C preemergence, plant response rating
[18] = 125 g ai/ha, scale 0 to 100 (0 no effect, 100 complete control)

FC(F)(F)CCCc1c(Br)cccc1Oc1ncc(Cl)cn1 [Compound 89]
Plant response rating, Barnyardgrass ([1]; 125 g ai/ha, scale of 0 to 100): 100 | Plant response rating, Barnyardgrass ([1]; 16 g ai/ha, scale 0 to 100): 5 | Plant response rating, Barnyardgrass ([1]; 31 g ai/ha, scale 0 to 100): 35 | Plant response rating, Barnyardgrass ([1]; 62 g ai/ha, scale 0 to 100): 90 | Plant response rating, Galium ([2]; 31 g ai/ha, scale 0 to 100): 0 | Plant response rating, Galium ([2]; 62 g ai/ha, scale 0 to 100): 0 | Plant response rating, Galium ([2]; 125 g ai/ha, scale of 0 to 100): 0 | Plant response rating, Kochia (kochia (Kochia scoparia); 31 g ai/ha, scale 0 to 100): 60 | Plant response rating, Kochia (kochia (Kochia scoparia); 62 g ai/ha, scale 0 to 100): 85 | Plant response rating, Kochia (kochia (Kochia scoparia); 125 g ai/ha, scale of 0 to 100): 90 | Plant response rating, Field Violet ([3]; 16 g ai/ha, scale of 0 to 100): 100 | Plant response rating, Field Violet ([3]; 31 g ai/ha, scale 0 to 100): 100 | Field Violet plant response rating ([3]; 62 g ai/ha): 100 | Field Violet plant response rating ([3]; 125 g ai/ha): 100 | Plant response rating, Buckwheat, Wild ([4]; 16 g ai/ha, scale of 0 to 100): 70 | Plant response rating, Buckwheat, Wild ([4]; 31 g ai/ha, scale 0 to 100): 75 | Buckwheat, Wild plant response rating ([4]; 62 g ai/ha): 75 | Buckwheat, Wild plant response rating ([4]; 125 g ai/ha): 85 | Plant response rating, Poinsettia, Wild ([5]; 16 g ai/ha, scale of 0 to 100): 55 | Plant response rating, Poinsettia, Wild ([5]; 31 g ai/ha, scale 0 to 100): 60 | Poinsettia, Wild plant response rating ([5]; 62 g ai/ha): 80 | Poinsettia, Wild plant response rating ([5]; 125 g ai/ha): 90 | Plant response rating, Field Poppy ([6]; 16 g ai/ha, scale of 0 to 100): 90 | Plant response rating, Field Poppy ([6]; 31 g ai/ha, scale 0 to 100): 95 | Field Poppy plant response rating ([6]; 62 g ai/ha): 100 | Field Poppy plant response rating ([6]; 125 g ai/ha): 100 | Plant response rating, Nightshade ([7]; 16 g ai/ha, scale of 0 to 100): 75 | Plant response rating, Nightshade ([7]; 31 g ai/ha, scale 0 to 100): 90 | Nightshade plant response rating ([7]; 62 g ai/ha): 95 | Nightshade plant response rating ([7]; 125 g ai/ha): 95 | Plant response rating, Pigweed, Palmer ([8]; 16 g ai/ha, scale of 0 to 100): 55 | Plant response rating, Pigweed, Palmer ([8]; 31 g ai/ha, scale 0 to 100): 75 | Pigweed, Palmer plant response rating ([8]; 62 g ai/ha): 80 | Pigweed, Palmer plant response rating ([8]; 125 g ai/ha): 85 | Plant response rating, Canada Thistle ([9]; 16 g ai/ha, scale of 0 to 100): 80 | Plant response rating, Canada Thistle ([9]; 31 g ai/ha, scale 0 to 100): 80 | Canada Thistle plant response rating ([9]; 62 g ai/ha): 85 | Canada Thistle plant response rating ([9]; 125 g ai/ha): 85 | Plant response rating, Geranium, Cutleaf ([10]; 16 g ai/ha, scale of 0 to 100): 35 | Plant response rating, Geranium, Cutleaf ([10]; 31 g ai/ha, scale 0 to 100): 35 | Geranium, Cutleaf plant response rating ([10]; 62 g ai/ha): 50 | Geranium, Cutleaf plant response rating ([10]; 125 g ai/ha): 55 | Plant response rating, Windgrass ([11]; 16 g ai/ha, scale of 0 to 100): 10 | Plant response rating, Windgrass ([11]; 31 g ai/ha, scale 0 to 100): 10 | Windgrass plant response rating [11, 18]: 35 | Plant response rating, Speedwell ([12]; 16 g ai/ha, scale of 0 to 100): 95 | Plant response rating, Speedwell ([12]; 31 g ai/ha, scale 0 to 100): 100 | Speedwell plant response rating ([12]; 62 g ai/ha): 100 | Speedwell plant response rating ([12]; 125 g ai/ha): 100 | Plant response rating, Mustard, Wild ([13]; 16 g ai/ha, scale of 0 to 100): 100 | Mustard, Wild plant response rating ([13]; 62 g ai/ha, scale 0 to 100 (0 no effect, 100 complete control)): 100 | Plant response rating, Surinam Grass ([14]; 16 g ai/ha, scale of 0 to 100): 10 | Plant response rating, Surinam Grass ([14]; 31 g ai/ha, scale 0 to 100): 10 | Surinam Grass plant response rating [14, 18]: 20 | Plant response rating, Johnsongrass ([15]; 16 g ai/ha, scale of 0 to 100): 5 | Plant response rating, Johnsongrass ([15]; 31 g ai/ha, scale 0 to 100): 10 | Johnsongrass plant response rating ([15]; 62 g ai/ha): 10 | Johnsongrass plant response rating ([15]; 125 g ai/ha): 85 | Plant response rating, Johnsongrass ([16]; 31 g ai/ha, scale 0 to 100): 40 | Plant response rating, Johnsongrass ([16]; 62 g ai/ha, scale 0 to 100): 30 | Plant response rating, Johnsongrass ([16]; 125 g ai/ha, scale of 0 to 100): 60 | Plant response rating, Nightshade ([17]; 31 g ai/ha, scale 0 to 100): 75 | Plant response rating, Nightshade ([17]; 62 g ai/ha, scale 0 to 100): 65 | Plant response rating, Nightshade ([17]; 125 g ai/ha, scale of 0 to 100): 85
